Measurements published in patent US20220235011A1, “PHTHALAZINONE COMPOUNDS AND USE THEREOF” (ST PHARM CO., LTD., priority 2019, published 2022).

Target: T1, Sirt6 (Homo sapiens, UniProt Q8N6T7)
T1 construct: purchased CycLex CY-1156V2
Experiment: Measurement of Sirt6 Activity (CycLex Sirt6 Deacetylase Fluorometric Assay Kit)
Assay type: biochemical
Conditions: compound at 10 μM; fluorescence relative to the group without compound treatment (positive control group)
Experimental: LC-MS (ESI, m/z)=430.1 (M+H^+) Experimental Example 1: Measurement of Sirt6 Activity Compounds having Sirt6 activity were selected using a CycLex Sirt6 Deacetylase Fluorometric Assay Kit (cat. CY-1156V2) manufactured by CycLex.
When a fluorescent-attached acetylated lysine substrate is treated with Sirt6 enzyme, Sirt6 deacetylates the acetylated lysine of the substrate and lysylendopeptidase cleaves the C-terminal peptide bond connected to the lysine, by which fluorescence is emitted. The activity of a compound is calculated by observing the intensity of fluorescence when the compound is treated along with Sirt6 enzyme. When treating the compound, the compound aids in the activity of Sirt6 enzyme, so as to result in stronger fluorescence. Therefore, by calculating the ratio of the stronger fluorescence relative to the fluorescence emitted from the group without compound treatment (i.e., positive control group), relative activity can be calculated.
Activity evaluation was performed according to the following procedure.
The compound whose activity is to be evaluated was prepared by diluting in phosphate-buffered saline (PBS) to 10 times of the desired concentration (e.g., when measuring Sirt6 assay activity at 10 μM, the compound is prepared at a concentration of 100 μM in PBS). 1 μL of a 1 Ox Sirt6 assay buffer, 0.8 μL of 50× fluoro-substrate peptide, 1 μL of nicotinamide adenine dinucleotide (NAD), 1 μL of a developer and 4.2 μL of H2O were mixed to prepare mixtures equal to the number of samples, and 8 μL was dispensed into each Black 384 well. An additional 1 μL of PBS was added to each of a “no enzyme group” and a positive control group, and 1 μL of the compound diluted in PBS was added to an activity evaluation group. Recombinant Sirt6 was 1:8 diluted in a 1×Sirt6 assay buffer, and 1 μL thereof was added to each of the positive control group and the activity evaluation group. 1 μL of the 1×Sirt6 assay buffer was added to the “no enzyme group.” After reacting at room temperature for one hour, results were measured with a fluorescence spectrometer (excitation: 490±10 nm, emission: 530±10 nm) to confirm the presence or absence of Sirt6 activity and measure the intensity of the activity.

T1 sequence (Q8N6T7 whole entry): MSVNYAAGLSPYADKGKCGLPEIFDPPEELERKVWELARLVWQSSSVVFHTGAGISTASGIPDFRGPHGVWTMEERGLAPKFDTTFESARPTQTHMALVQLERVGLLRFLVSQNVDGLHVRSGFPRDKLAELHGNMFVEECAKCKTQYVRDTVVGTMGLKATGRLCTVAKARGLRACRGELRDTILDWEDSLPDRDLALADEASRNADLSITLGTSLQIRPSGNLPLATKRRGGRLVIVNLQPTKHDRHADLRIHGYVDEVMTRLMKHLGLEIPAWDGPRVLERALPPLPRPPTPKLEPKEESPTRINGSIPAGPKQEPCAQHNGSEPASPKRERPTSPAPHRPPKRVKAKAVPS

Structure (SMILES)	Sirt6 Activity (% activity, 10 μM)
CC(C)S(=O)(=O)Nc1cccc(-c2nn(-c3ccc(F)cc3)c(=O)c3ccccc23)c1 [Example 67, N-(3-(3-(4-Fluorophenyl)-4-oxo-3,4-dihydrophthalazin-1-yl)phenyl)propan-2-sulfonamide]	166 % activity
Cl.O=c1c2ccccc2c(N2CCCC[C@@H](NCCO)C2)nn1-c1ccc(F)cc1F [Example 191, (R)-2-(2,4-Difluorophenyl)-4-(3-((2-hydroxyethyl)amino)azepan-1-yl)phthalazin-1(2H)-one-hydro Chloride]	312.70 % activity
CCS(=O)(=O)Nc1ccc(-c2nn(-c3ccccc3)c(=O)c3ccccc23)cc1 [Example 8, N-(4-(4-Oxo-3-phenyl-3,4-dihydrophthalazin-1-yl)phenyl)ethanesulfonamide]	100 % activity
CNS(=O)(=O)c1cccc(-c2nn(-c3c(F)cccc3F)c(=O)c3ccccc23)c1 [Example 107, 3-(3-(2,6-Difluorophenyl)-4-oxo-3,4-dihydrophthalazin-1-yl)-N-methylbenzenesulfonamide]	233 % activity
C/[N+]([O-])=C/c1cccc(-c2nn(-c3ccccc3)c(=O)c3ccccc23)c1 [Example 13, (Z)—N-Methyl-1-(3-(4-oxo-3-phenyl-3,4-dihydrophthalazin-1-yl)phenyl)methanimine Oxide]	181 % activity
O=C(O)Cc1cccc(-c2nn(-c3ccc(F)cc3F)c(=O)c3ccccc23)c1 [Example 199, 2-(3-(3-(2,4-Difluorophenyl)-4-oxo-3,4-dihydrophthalazin-1-yl)phenyl)acetic Acid]	149.41 % activity
CCS(=O)(=O)Nc1cccc(-c2nn(C3CCCCC3)c(=O)c3ccccc23)c1 [Example 128, N-(3-(3-Cyclohexyl-4-oxo-3,4-dihydrophthalazin-1-yl)phenyl)ethanesulfonamide]	177.53 % activity
CC(C)(C(=O)NCCO)c1cccc(-c2nn(-c3ccc(F)cc3F)c(=O)c3ccccc23)c1 [Example 186, 2-(3-(3-(2,4-Difluorophenyl)-4-oxo-3,4-dihydrophthalazin-1-yl)phenyl)-N-(2-hydroxyethyl)-2-methyl Propanamide]	305.80 % activity
CC(C)NC(=O)C(C)(C)c1cccc(-c2nn(-c3ccc(F)cc3F)c(=O)c3ccccc23)c1 [Example 176, 2-(3-(3-(2,4-Difluorophenyl)-4-oxo-3,4-dihydrophthalazin-1-yl)phenyl)-N-isopropyl-2-methylpropanamide]	244.30 % activity
O=C(O)C1(c2cccc(-c3nn(-c4ccc(Cl)cc4)c(=O)c4ccccc34)c2)CC1 [Example 195, 1-(3-(3-(4-Chlorophenyl)-4-oxo-3,4-dihydrophthalazin-1-yl)phenyl)cyclopropan-1-carboxylic Acid]	287.30 % activity
CN1CCN(c2nn(-c3ccc(F)cc3F)c(=O)c3ccccc23)CC1C(C)(C)C(=O)O (centres unmarked) [Example 220, 2-(4-(3-(2,4-Difluorophenyl)-4-oxo-3,4-dihydrophthalazin-1-yl)-1-methylpiperazin-2-yl)-2-methylpropanoic Acid]	125.80 % activity
O=c1c2ccccc2c(-c2cccc(/C=[N+](\[O-])Cc3ccccc3)c2)nn1-c1ccc(F)cc1 [Example 44, (Z)—N-Benzyl-1-(3-(3-(4-fluorophenyl)-4-oxo-3,4-dihydrophthalazin-1-yl)phenyl)methanimine Oxide]	142 % activity
CS(=O)(=O)c1cccc(-c2nn(-c3ccccc3)c(=O)c3cc(F)ccc23)c1 [Example 112, 7-Fluoro-4-(3-(methylsulfonyl)phenyl)-2-phenylphthalazin-1(2H)-one]	103 % activity
Cc1nc(C(C)(C)c2cccc(-c3nn(-c4ccc(F)cc4F)c(=O)c4ccccc34)c2)no1 [Example 174, 2-(2,4-Difluorophenyl)-4-(3-(2-(5-methyl-1,2,4-oxadiazol-3-yl)propan-2-yl)phenyl)phthalazin-1(2H)-one]	114.2 % activity
CS(=O)(=O)N(c1cc(-c2nn(-c3ccccc3)c(=O)c3ccccc23)ccc1Cl)S(C)(=O)=O [Example 18, N-(2-Chloro-5-(4-oxo-3-phenyl-3,4-dihydrophthalazin-1-yl)phenyl)-N-(methylsulfonyl)methane-sulfonamide]	114 % activity

Other lines, results leading:

Sirt6 Activity (% activity, 10 μM)	Structure (SMILES)
135.10 % activity	O=c1c2ccccc2c(N2CCCCC(O)C2)nn1-c1ccc(Cl)cc1 (centres unmarked) [Example 196, 2-(4-Chlorophenyl)-4-(3-hydroxyazepan-1-yl)phthalazin-1(2H)-one]
195 % activity	C/[N+]([O-])=C/c1ccc(-c2nn(-c3ccc(F)cc3)c(=O)c3ccccc23)s1 [Example 45, (Z)-1-(5-(3-(4-Fluorophenyl)-4-oxo-3,4-dihydrophthalazin-1-yl)thiophen-2-yl)-N-methylmethanimine Oxide]
180 % activity	CN(C)S(=O)(=O)c1cccc(-c2nn(-c3ccc(F)cc3)c(=O)c3ccccc23)c1 [Example 88, 3-(3-(4-Fluorophenyl)-4-oxo-3,4-dihydrophthalazin-1-yl)-N,N-dimethylbenzene Sulfonamide]
170 % activity	CCS(=O)(=O)Nc1cccc(-c2nn(-c3ccccc3)c(=O)c3ccccc23)c1 [Example 1, N-(3-(4-Oxo-3-phenyl-3,4-dihydrophthalazin-1-yl)phenyl)ethanesulfonamide]
96 % activity	CCS(=O)(=O)N(C)c1cccc(-c2nn(-c3ccc(-c4ccccc4)cc3)c(=O)c3ccccc23)c1 [Example 65, N-(3-(3-([1,1′-Biphenyl]-4-yl)-4-oxo-3,4-dihydrophthalazin-1-yl)phenyl)-N-methylethanesulfonamide]
226 % activity	O=c1c2ccccc2c(-c2ccc[n+]([O-])c2)nn1-c1ccc(F)cc1 [Example 114, 3-(3-(4-Fluorophenyl)-4-oxo-3,4-dihydrophthalazin-1-yl)pyridine 1-oxide]
121 % activity	CC(C)/[N+]([O-])=C/c1cccc(-c2nn(-c3ccccc3)c(=O)c3ccccc23)c1 [Example 14, (Z)—N-Isopropyl-1-(3-(4-oxo-3-phenyl-3,4-dihydrophthalazin-1-yl)phenyl)methanimine Oxide]
212.55 % activity	CCS(=O)(=O)NC1CCCCN(c2nn(-c3ccc(F)cc3)c(=O)c3ccccc23)C1 (centres unmarked) [Example 141, N-(1-(3-(4-Fluorophenyl)-4-oxo-3,4-dihydrophthalazin-1-yl)azepan-3-yl)ethanesulfonamide]
219.60 % activity	Cn1cc(NC(=O)C(C)(C)c2cccc(-c3nn(-c4ccc(F)cc4F)c(=O)c4ccccc34)c2)cn1 [Example 182, 2-(3-(3-(2,4-Difluorophenyl)-4-oxo-3,4-dihydrophthalazin-1-yl)phenyl)-2-methyl-N-(1-methyl-1H-pyrazol-4-yl)propanamide]
350.20 % activity	CC(C)(C(=O)O)c1cccc(-c2nn(-c3ccc(Cl)cc3)c(=O)c3ccccc23)c1 [Example 194, 2-(3-(3-(4-Chlorophenyl)-4-oxo-3,4-dihydrophthalazin-1-yl)phenyl)-2-methylpropanoic Acid]
209 % activity	CCNS(=O)(=O)c1cccc(-c2nn(-c3c(F)cccc3F)c(=O)c3ccccc23)c1 [Example 108, 3-(3-(2,6-Difluorophenyl)-4-oxo-3,4-dihydrophthalazin-1-yl)-N-ethylbenzenesulfonamide]
155.3 % activity	Cl.N[C@@H]1CCCCN(c2nn(-c3ccccc3F)c(=O)c3ccccc23)C1 [Example 175, (R)-4-(3-Aminoazepan-1-yl)-2-(2-fluorophenyl)phthalazin-1(2H)-one-hydrochloride]
263.7 % activity	CS(=O)(=O)c1cccc(-c2nn(C3CCCCC3)c(=O)c3ccccc23)c1 [Example 154, 2-Cyclohexyl-4-(3-(methylsulfonyl)phenyl)phthalazin-1(2H)-one]
88 % activity	Nc1cccc(-c2nn(-c3ccc(C(F)(F)F)cc3)c(=O)c3ccccc23)c1 [Example 2, 4-(3-Aminophenyl)-2-(4-(trifluoromethyl)phenyl)phthalazin-1(2H)-one]
